pKd: −log10 of the molar value. Like-named read-outs stand apart in the source and are kept apart here.
Tests used:
Type in all cases: binding
Ribonuclease A (RNaseA) [1] = biological target: T1, Ribonuclease A (RNaseA) (Bos taurus, UniProt P61823); assay: reactive liquid sample DESI-MS of the native […] complex
T1 sequence (P61823 27-150): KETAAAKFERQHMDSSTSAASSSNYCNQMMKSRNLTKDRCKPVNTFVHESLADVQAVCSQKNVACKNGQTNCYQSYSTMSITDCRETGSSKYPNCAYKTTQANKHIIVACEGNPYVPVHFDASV

Ribonuclease A (RNaseA) [2] = biological target: T1, Ribonuclease A (RNaseA); assay: as above; remark: listed apart in the source
Ribonuclease A (RNaseA) [3] = biological target: T1, Ribonuclease A (RNaseA); assay: reactive liquid sample DESI-MS of the native complex, ligand titration
lysozyme = lysozyme (Gallus gallus, UniProt P00698); assay: reactive liquid sample DESI-MS of the native […] complex
Sequence of lysozyme (P00698 19-147): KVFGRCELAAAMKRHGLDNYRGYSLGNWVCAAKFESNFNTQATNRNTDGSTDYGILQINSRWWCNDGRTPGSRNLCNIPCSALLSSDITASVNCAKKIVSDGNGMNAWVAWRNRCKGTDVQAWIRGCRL

Nc1ccn([C@@H]2O[C@H](CO)[C@@H](O)[C@H]2OP(=O)(O)O)c(=O)n1 [2′-CMP, cytidine 2′-monophosphate]
reactive liquid sample DESI-MS of the native 1:1 complex ([holo]/[apo] ratio at (Ribonuclease A (RNaseA) [1]): 0.13±0.017

Nc1ccn([C@@H]2O[C@H](COP(=O)(O)OP(=O)(O)O)[C@@H](O)[C@H]2O)c(=O)n1 [CDP, cytidine 5′-diphosphate]
reactive liquid sample DESI-MS of the native 1:1 complex ([holo]/[apo] ratio at (Ribonuclease A (RNaseA) [2]): 0.37±0.04

Nc1ccn([C@@H]2O[C@H](COP(=O)(O)OP(=O)(O)OP(=O)(O)O)[C@@H](O)[C@H]2O)c(=O)n1 [CTP, cytidine 5′-triphosphate]
pKd (Ribonuclease A (RNaseA) [3]): 5.72

CC(=O)N[C@H]1[C@H](O[C@H]2[C@H](O)[C@@H](NC(C)=O)C(O)O[C@@H]2CO)O[C@H](CO)[C@@H](O[C@@H]2O[C@H](CO)[C@@H](O)[C@H](O)[C@H]2NC(C)=O)[C@@H]1O (stereo partly shown) [NAG3, N,N’,N’’-triacetylchitotriose]
pKd (lysozyme): 3.77

Source: PMC3901310 (Analytical chemistry, 2013)
